# According to US20240384268A1, “Oligonucleotides” (Hudson Institute of Medical Research, priority 2021, published 2024):
# Biological target: T1, human TLR9 (Homo sapiens, UniProt Q9NR96)
# T1 construct: HA; host or cells: 293XL-hTLR9-HA (HEK293)
# T1 sequence (Q9NR96 26-1032): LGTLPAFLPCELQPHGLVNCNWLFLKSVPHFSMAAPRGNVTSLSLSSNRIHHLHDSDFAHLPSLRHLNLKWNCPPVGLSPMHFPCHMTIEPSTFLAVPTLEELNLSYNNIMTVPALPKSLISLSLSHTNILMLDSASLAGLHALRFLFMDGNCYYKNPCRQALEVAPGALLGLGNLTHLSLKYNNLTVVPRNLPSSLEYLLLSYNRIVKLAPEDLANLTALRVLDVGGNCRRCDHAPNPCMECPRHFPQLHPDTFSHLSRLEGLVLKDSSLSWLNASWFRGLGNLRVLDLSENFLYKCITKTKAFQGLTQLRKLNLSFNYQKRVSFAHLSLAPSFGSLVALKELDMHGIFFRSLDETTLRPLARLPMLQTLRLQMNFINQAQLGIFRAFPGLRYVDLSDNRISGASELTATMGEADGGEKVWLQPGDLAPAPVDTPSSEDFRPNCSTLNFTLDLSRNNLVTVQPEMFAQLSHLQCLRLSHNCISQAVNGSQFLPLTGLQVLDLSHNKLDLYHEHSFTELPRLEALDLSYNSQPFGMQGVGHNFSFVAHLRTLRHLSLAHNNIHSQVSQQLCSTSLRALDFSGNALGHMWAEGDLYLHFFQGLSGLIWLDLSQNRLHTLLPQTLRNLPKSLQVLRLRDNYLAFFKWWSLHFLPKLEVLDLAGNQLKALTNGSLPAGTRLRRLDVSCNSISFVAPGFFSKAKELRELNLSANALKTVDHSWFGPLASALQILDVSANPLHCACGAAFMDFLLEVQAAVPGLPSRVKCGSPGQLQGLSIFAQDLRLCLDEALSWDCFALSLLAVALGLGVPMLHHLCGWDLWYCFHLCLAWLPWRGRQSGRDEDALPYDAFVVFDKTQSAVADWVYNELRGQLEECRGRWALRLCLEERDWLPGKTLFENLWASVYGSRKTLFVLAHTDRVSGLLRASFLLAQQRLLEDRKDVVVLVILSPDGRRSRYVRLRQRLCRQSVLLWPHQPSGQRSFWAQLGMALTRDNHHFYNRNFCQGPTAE
# Experiment: HEK-TLR9 NF-κB-luciferase reporter, ODN2006 stimulation
# Format: cell-based
# Details: ASO 100 nM; relative to ODN2006 only, given as fraction
row,Sequence,TLR9 100 nM (averaged NF-κB-Luciferase level relative to ODN2006 condition)
1,"ATGGCCTCCCATCTCC (antisense; LNA-modified, pattern not given here) [HPRT LNA-330 V1]",0.511
2,"ATGTGATGGCCTCCCA (antisense; LNA-modified, pattern not given here) [HPRT LNA-335 V1]",0.776
3,"CACTTCGTGGGGTCCT (antisense; LNA-modified, pattern not given here) [HPRT LNA-664 V1]",0.215
4,"CATCCACCACGTCGTC (antisense; LNA-modified, pattern not given here) [EGFR-3266 LNA V1]",0.722
5,"CCAACACTTCGTGGGG (antisense; LNA-modified, pattern not given here) [HPRT LNA-668 V1]",1.065
6,"CCACATCCTGTGGCTC (antisense; LNA-modified, pattern not given here) [CAMSAP1-2906 LNA V1]",0.338
7,"CCACTTGGCAGACCAT (antisense; LNA-modified, pattern not given here) [CTNN2B-1575 LNA V1]",1.112
8,"CCAGCAGGTCAGCAAA (antisense; LNA-modified, pattern not given here) [HPRT LNA-388 KL]",0.736
9,"CCCACTTGGCAGACCA (antisense; LNA-modified, pattern not given here) [CTNN2B-1576 LNA V1]",0.381
10,"CCTCCCATCTCCTTCA (antisense; LNA-modified, pattern not given here) [HPRT LNA-326 V1]",1.010
11,"CCTTGCACGTGGCTTC (antisense; LNA-modified, pattern not given here) [EGFR-1013 LNA V1]",0.814
12,"CGCTTTTCTGTCTGGT (antisense; LNA-modified, pattern not given here) [CTNN2B-311 LNA KL]",0.827
13,"CGGCCTCGGAAGCTCT (antisense; LNA-modified, pattern not given here) [MB21D1-168 LNA V1]",0.218
14,"CGTATTATAGCCGATT (antisense; LNA-modified, pattern not given here) [NC1 LNA PS 3-10-3]",0.933
15,"CTGCAGCTTCCTTGTC (antisense; LNA-modified, pattern not given here) [CTNN2B-2136 LNA V1]",0.358
16,"CTTCGTGGGGTCCTTT (antisense; LNA-modified, pattern not given here) [HPRT LNA-662 V1]",0.557

row,Sequence,TLR9 100 nM (averaged NF-κB-Luciferase level relative to ODN2006 condition)
1,"CTTGAAGCATCGTATC (antisense; LNA-modified, pattern not given here) [CTNN2B-3648 LNA KL]",0.899
2,"CTTGGCTTCGTGGAGC (antisense; LNA-modified, pattern not given here) [MB21D1-520 LNA V1]",0.596
3,"GAAAGGTTATGCAAGG (antisense; LNA-modified, pattern not given here) [CTNN2B-916 LNA KL]",0.748
4,"GACTATACGCGCAATA (antisense; LNA-modified, pattern not given here) [NC5 LNA PS 3-10-3]",0.784
5,"GAGGTCTTGGCTTCGT (antisense; LNA-modified, pattern not given here) [MB21D1-525 LNA V1]",0.897
6,"GATGGCCTCCCATCTC (antisense; LNA-modified, pattern not given here) [HPRT LNA-331 V1]",1.033
7,"GCACACTTCGTACCCA (antisense; LNA-modified, pattern not given here) [CAMSAP1-4915 LNA V1]",0.683
8,"GCACTTCAGTCTGAGC (antisense; LNA-modified, pattern not given here) [MB21D1-719 LNA KL]",0.673
9,"GGAGGTCTTGGCTTCG (antisense; LNA-modified, pattern not given here) [MB21D1-526 LNA V1]",0.912
10,"GGCACTTTGCCTCCTT (antisense; LNA-modified, pattern not given here) [EGFR-2859 LNA V1]",1.092
11,"GGCTCGGCTTGCCTAC (antisense; LNA-modified, pattern not given here) [CAMSAP1-5594 LNA V1]",0.714
12,"GGTCATTACAATAGCT (antisense; LNA-modified, pattern not given here) [HPRT LNA-475 KL]",0.438
13,"GGTCTTGGCTTCGTGG (antisense; LNA-modified, pattern not given here) [MB21D1-523 LNA V1]",0.658
14,"GTCAAGGGCATATCCT (antisense; LNA-modified, pattern not given here) [HPRT LNA-732 KL]",0.844
15,"GTCCTTGCACGTGGCT (antisense; LNA-modified, pattern not given here) [EGFR-1015 LNA V1]",1.310

# Same assay, conditions: ASO 500 nM; relative to ODN2006 only, given as fraction
row,Sequence,TLR9 500 nM (averaged NF-κB-Luciferase level relative to ODN2006 condition)
1,"ATGGCCTCCCATCTCC (antisense; LNA-modified, pattern not given here) [HPRT LNA-330 V1]",0.244
2,"ATGTGATGGCCTCCCA (antisense; LNA-modified, pattern not given here) [HPRT LNA-335 V1]",0.451
3,"CACTTCGTGGGGTCCT (antisense; LNA-modified, pattern not given here) [HPRT LNA-664 V1]",0.074
4,"CATCCACCACGTCGTC (antisense; LNA-modified, pattern not given here) [EGFR-3266 LNA V1]",0.620
5,"CCAACACTTCGTGGGG (antisense; LNA-modified, pattern not given here) [HPRT LNA-668 V1]",0.610
6,"CCACATCCTGTGGCTC (antisense; LNA-modified, pattern not given here) [CAMSAP1-2906 LNA V1]",0.337
7,"CCACTTGGCAGACCAT (antisense; LNA-modified, pattern not given here) [CTNN2B-1575 LNA V1]",0.111
8,"CCAGCAGGTCAGCAAA (antisense; LNA-modified, pattern not given here) [HPRT LNA-388 KL]",0.149
9,"CCCACTTGGCAGACCA (antisense; LNA-modified, pattern not given here) [CTNN2B-1576 LNA V1]",0.656
10,"CCTCCCATCTCCTTCA (antisense; LNA-modified, pattern not given here) [HPRT LNA-326 V1]",0.727
11,"CCTTGCACGTGGCTTC (antisense; LNA-modified, pattern not given here) [EGFR-1013 LNA V1]",0.519
12,"CGCTTTTCTGTCTGGT (antisense; LNA-modified, pattern not given here) [CTNN2B-311 LNA KL]",0.178
13,"CGGCCTCGGAAGCTCT (antisense; LNA-modified, pattern not given here) [MB21D1-168 LNA V1]",0.116
14,"CGTATTATAGCCGATT (antisense; LNA-modified, pattern not given here) [NC1 LNA PS 3-10-3]",0.558
15,"CTGCAGCTTCCTTGTC (antisense; LNA-modified, pattern not given here) [CTNN2B-2136 LNA V1]",0.263
16,"CTTCGTGGGGTCCTTT (antisense; LNA-modified, pattern not given here) [HPRT LNA-662 V1]",0.240

row,Sequence,TLR9 500 nM (averaged NF-κB-Luciferase level relative to ODN2006 condition)
1,"CTTGAAGCATCGTATC (antisense; LNA-modified, pattern not given here) [CTNN2B-3648 LNA KL]",0.483
2,"CTTGGCTTCGTGGAGC (antisense; LNA-modified, pattern not given here) [MB21D1-520 LNA V1]",0.371
3,"GAAAGGTTATGCAAGG (antisense; LNA-modified, pattern not given here) [CTNN2B-916 LNA KL]",0.606
4,"GACTATACGCGCAATA (antisense; LNA-modified, pattern not given here) [NC5 LNA PS 3-10-3]",0.403
5,"GAGGTCTTGGCTTCGT (antisense; LNA-modified, pattern not given here) [MB21D1-525 LNA V1]",0.224
6,"GATGGCCTCCCATCTC (antisense; LNA-modified, pattern not given here) [HPRT LNA-331 V1]",0.476
7,"GCACACTTCGTACCCA (antisense; LNA-modified, pattern not given here) [CAMSAP1-4915 LNA V1]",0.147
8,"GCACTTCAGTCTGAGC (antisense; LNA-modified, pattern not given here) [MB21D1-719 LNA KL]",0.144
9,"GGAGGTCTTGGCTTCG (antisense; LNA-modified, pattern not given here) [MB21D1-526 LNA V1]",0.674
10,"GGCACTTTGCCTCCTT (antisense; LNA-modified, pattern not given here) [EGFR-2859 LNA V1]",0.788
11,"GGCTCGGCTTGCCTAC (antisense; LNA-modified, pattern not given here) [CAMSAP1-5594 LNA V1]",0.350
12,"GGTCATTACAATAGCT (antisense; LNA-modified, pattern not given here) [HPRT LNA-475 KL]",0.604
13,"GGTCTTGGCTTCGTGG (antisense; LNA-modified, pattern not given here) [MB21D1-523 LNA V1]",0.417
14,"GTCAAGGGCATATCCT (antisense; LNA-modified, pattern not given here) [HPRT LNA-732 KL]",0.387
15,"GTCCTTGCACGTGGCT (antisense; LNA-modified, pattern not given here) [EGFR-1015 LNA V1]",0.722
